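The compound was tested at five concentrations on cells cultured in 96-well plates, with a 48-hour exposure period. The concentration for 50% growth inhibition is given as GI50.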 The source made the active and inactive calls. Cut-off read from the data, not from the text of the source: active = GI50 up to about 1.1 µM and inactive = higher.
Assays:
Assay in all cases: DTP human tumour cell line panel, 48 h
COLO 205 = test system: COLO 205
DMS-114 = test system: DMS-114
HOP-62 = test system: HOP-62
K562 = test system: K562
KM-20L2 = test system: KM-20L2
M19-MEL = test system: M19-MEL
NCI-H460 = test system: NCI-H460
RPMI-8226 = test system: RPMI-8226
SK-MEL-28 = test system: SK-MEL-28
SNB-75 = test system: SNB-75
SW-620 = test system: SW-620
UACC-62 = test system: UACC-62
UO-31 = test system: UO-31
HCT-15 = test system: HCT-15
HL-60 = test system: HL-60
HOP-92 = test system: HOP-92
RXF 393 = test system: RXF 393
BT-549 = test system: BT-549
MDA-MB-231 = test system: MDA-MB-231
T47D = test system: T47D

With `COc1cc2cccc(NC(=O)c3cc(OC)c(OC)c(OC)c3Br)c2cc1OC` the GI50 (COLO 205) was 12.9 µM (inactive), the GI50 (DMS-114) was 3.12 µM (inactive) and the GI50 (HOP-62) was 17.3 µM (inactive). The GI50 (K562) was 12.5 µM (inactive), the GI50 (KM-20L2) was 25.7 µM (inactive) and the GI50 (M19-MEL) was 10.2 µM (inactive). The GI50 (NCI-H460) was 12.5 µM (inactive), the GI50 (RPMI-8226) was 2.45 µM (inactive) and the GI50 (SK-MEL-28) was 16.1 µM (inactive). The GI50 (SNB-75) was 26.9 µM (inactive), the GI50 (SW-620) was 24.8 µM (inactive) and the GI50 (UACC-62) was 10.3 µM (inactive). The GI50 (UO-31) was 5.9 µM (inactive).

With `N#Cc1c(-c2ccccc2)cc(-c2cccs2)c(C#N)c1N` the GI50 (COLO 205) was > 10 µM (inactive), the GI50 (DMS-114) was > 10 µM (inactive) and the GI50 (HCT-15) was over 100 µM. The GI50 (HL-60) was > 100 µM (inactive), the GI50 (HOP-62) was > 100 µM (inactive) and the GI50 (HOP-92) was > 100 µM (inactive). The GI50 (K562) was > 100 µM (inactive), the GI50 (KM-20L2) was > 100 µM (inactive) and the GI50 (M19-MEL) was > 10 µM (inactive). For the same compound, the GI50 (NCI-H460) was > 100 µM (inactive), the GI50 (RPMI-8226) was > 100 µM (inactive) and the GI50 (SNB-75) was 12.2 µM (inactive). The GI50 (SW-620) was > 100 µM (inactive) and the GI50 (UACC-62) was > 10 µM (inactive).

`O=C(CNC(=O)OCc1ccccc1)Oc1ccccc1` was tested, and the GI50 (COLO 205) was > 100 µM (inactive), the GI50 (DMS-114) was > 100 µM (inactive) and the GI50 (HCT-15) was over 100 µM. For the same compound, the GI50 (HL-60) was > 100 µM (inactive), the GI50 (HOP-62) was > 100 µM (inactive) and the GI50 (HOP-92) was > 100 µM (inactive). The GI50 (K562) was > 100 µM (inactive), the GI50 (KM-20L2) was > 100 µM (inactive) and the GI50 (M19-MEL) was > 100 µM (inactive). The GI50 (NCI-H460) was > 100 µM (inactive), the GI50 (RPMI-8226) was > 100 µM (inactive) and the GI50 (RXF 393) was > 100 µM (inactive). The GI50 (SK-MEL-28) was > 100 µM (inactive), the GI50 (SNB-75) was > 100 µM (inactive) and the GI50 (UACC-62) was > 100 µM (inactive). The GI50 (UO-31) was > 100 µM (inactive).

For `COc1ccc(Cl)cc1NC(=O)c1cccc([N+](=O)[O-])c1O`, the GI50 (BT-549) was 4.37 µM (inactive), the GI50 (COLO 205) was 13.5 µM (inactive) and the GI50 (HCT-15) was 21.8 µM. For the same compound, the GI50 (HL-60) was 19.1 µM (inactive), the GI50 (HOP-62) was 13.4 µM (inactive) and the GI50 (HOP-92) was 3 µM (inactive). The GI50 (K562) was 32.1 µM (inactive), the GI50 (KM-20L2) was 15 µM (inactive) and the GI50 (M19-MEL) was 9.79 µM (inactive). The GI50 (MDA-MB-231) was 24.8 µM (inactive), the GI50 (NCI-H460) was 15.7 µM (inactive) and the GI50 (RPMI-8226) was 5.07 µM (inactive). The GI50 (RXF 393) was 12 µM (inactive), the GI50 (SK-MEL-28) was 11.7 µM (inactive) and the GI50 (SNB-75) was 17.8 µM (inactive). For the same compound, the GI50 (SW-620) was 22.7 µM (inactive), the GI50 (T47D) was 9.25 µM (inactive) and the GI50 (UACC-62) was 6.82 µM (inactive). For the same compound, the GI50 (UO-31) was 7.35 µM (inactive).

In the case of `Cc1cc(Cl)ccc1N1C(=O)C(=O)C(c2nc3ccccc3s2)C(=O)C1=O`, the GI50 (COLO 205) is reported as > 100 µM (inactive), the GI50 (DMS-114) is reported as > 100 µM (inactive) and the GI50 (HCT-15) is reported as over 100 µM. For the same compound, the GI50 (HL-60) was > 100 µM (inactive), the GI50 (HOP-62) was > 100 µM (inactive) and the GI50 (HOP-92) was > 100 µM (inactive). For the same compound, the GI50 (K562) was > 100 µM (inactive), the GI50 (KM-20L2) was > 100 µM (inactive) and the GI50 (NCI-H460) was > 100 µM (inactive). The GI50 (RPMI-8226) was > 100 µM (inactive), the GI50 (SK-MEL-28) was > 100 µM (inactive) and the GI50 (SNB-75) was > 100 µM (inactive). For the same compound, the GI50 (SW-620) was > 100 µM (inactive), the GI50 (UACC-62) was > 100 µM (inactive) and the GI50 (UO-31) was > 100 µM (inactive).

`COc1ccc2c(c1)C(=O)Cc1ccccc1CC2` was tested, and the GI50 (COLO 205) was > 100 µM (inactive), the GI50 (DMS-114) was > 100 µM (inactive) and the GI50 (HCT-15) was over 100 µM. The GI50 (HL-60) was > 100 µM (inactive), the GI50 (HOP-92) was > 100 µM (inactive) and the GI50 (K562) was > 100 µM (inactive). For the same compound, the GI50 (KM-20L2) was > 100 µM (inactive), the GI50 (M19-MEL) was > 100 µM (inactive) and the GI50 (NCI-H460) was > 100 µM (inactive). The GI50 (RPMI-8226) was > 100 µM (inactive), the GI50 (RXF 393) was > 100 µM (inactive) and the GI50 (SK-MEL-28) was > 100 µM (inactive). For the same compound, the GI50 (SNB-75) was 27.7 µM (inactive), the GI50 (SW-620) was > 100 µM (inactive) and the GI50 (UACC-62) was > 100 µM (inactive). For the same compound, the GI50 (UO-31) was > 100 µM (inactive).

With `COCCOCOc1ccc(OCOCCOC)c2c1C(=O)c1ccccc1C2=O` the GI50 (COLO 205) was 54.1 µM (inactive), the GI50 (DMS-114) was 3.19 µM (inactive) and the GI50 (HCT-15) was 30.3 µM. For the same compound, the GI50 (HL-60) was 18.4 µM (inactive), the GI50 (HOP-62) was > 100 µM (inactive) and the GI50 (HOP-92) was > 79.6 µM (inactive). The GI50 (K562) was 24.7 µM (inactive), the GI50 (KM-20L2) was 32 µM (inactive) and the GI50 (M19-MEL) was 16.7 µM (inactive). For the same compound, the GI50 (NCI-H460) was 24.3 µM (inactive), the GI50 (RXF 393) was 29.4 µM (inactive) and the GI50 (SK-MEL-28) was > 100 µM (inactive). The GI50 (SNB-75) was 99.3 µM (inactive), the GI50 (SW-620) was 36.5 µM (inactive) and the GI50 (UACC-62) was 47.6 µM (inactive). The GI50 (UO-31) was 28.7 µM (inactive).

For `Cc1ccc(-n2c(C)nc3c2C(=O)c2ccccc2C3=O)cc1`, the GI50 (COLO 205) was 14.6 µM (inactive), the GI50 (HCT-15) was 7.53 µM and the GI50 (HL-60) was 9.14 µM (inactive). The GI50 (HOP-62) was 41.2 µM (inactive), the GI50 (HOP-92) was 49.4 µM (inactive) and the GI50 (K562) was 5.86 µM (inactive). The GI50 (KM-20L2) was 18.3 µM (inactive), the GI50 (M19-MEL) was 12 µM (inactive) and the GI50 (NCI-H460) was 4.44 µM (inactive). For the same compound, the GI50 (RXF 393) was > 100 µM (inactive), the GI50 (SK-MEL-28) was 52.6 µM (inactive) and the GI50 (SNB-75) was 34.4 µM (inactive). For the same compound, the GI50 (SW-620) was 33.5 µM (inactive), the GI50 (UACC-62) was 8.57 µM (inactive) and the GI50 (UO-31) was 66.7 µM (inactive).

With `COc1cccc(N2C(=O)C3C4C=C5c6ccccc6N(c6ccccc6)C5(C3C2=O)[C@H]2C(=O)N(c3cccc(OC)c3)C(=O)[C@@H]42)c1` (stereo not given in full) the GI50 (COLO 205) was > 100 µM (inactive), the GI50 (DMS-114) was > 100 µM (inactive) and the GI50 (HCT-15) was over 100 µM. The GI50 (HL-60) was > 100 µM (inactive), the GI50 (HOP-62) was > 100 µM (inactive) and the GI50 (HOP-92) was > 100 µM (inactive). For the same compound, the GI50 (K562) was > 100 µM (inactive), the GI50 (KM-20L2) was > 100 µM (inactive) and the GI50 (M19-MEL) was > 100 µM (inactive). For the same compound, the GI50 (NCI-H460) was > 100 µM (inactive), the GI50 (RPMI-8226) was > 100 µM (inactive) and the GI50 (RXF 393) was > 100 µM (inactive). The GI50 (SNB-75) was > 100 µM (inactive), the GI50 (SW-620) was > 100 µM (inactive) and the GI50 (UACC-62) was > 100 µM (inactive). For the same compound, the GI50 (UO-31) was > 100 µM (inactive).

From ChEMBL document CHEMBL1201862, “PubChem BioAssay data set” (2004)
